In ChEMBL document CHEMBL1268980, “2-Aryl benzimidazoles: human SCD1-specific stearoyl coenzyme-A desaturase inhibitors” (Bioorg Med Chem Lett, 2010):
Each block holds one compound with its values, some of them ahead of it.

How the values were obtained:
[1] = biological target: T1, Acyl-CoA desaturase 1 (Rattus norvegicus, UniProt P07308); assay: Inhibition of rat SCD1
T1 sequence (P07308 whole entry): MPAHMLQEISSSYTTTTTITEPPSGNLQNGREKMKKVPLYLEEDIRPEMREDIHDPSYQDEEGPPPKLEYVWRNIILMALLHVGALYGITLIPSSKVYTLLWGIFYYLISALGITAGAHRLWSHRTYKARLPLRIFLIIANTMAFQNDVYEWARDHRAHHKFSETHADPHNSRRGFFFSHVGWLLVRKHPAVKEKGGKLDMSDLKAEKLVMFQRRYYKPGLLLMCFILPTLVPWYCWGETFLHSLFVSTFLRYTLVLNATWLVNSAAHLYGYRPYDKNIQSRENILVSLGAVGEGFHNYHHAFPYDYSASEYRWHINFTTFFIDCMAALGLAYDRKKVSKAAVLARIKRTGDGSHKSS

[2] = biological target: T2, Stearoyl-CoA desaturase (Homo sapiens, UniProt O00767); assay: Inhibition of human SCD1
T2 sequence (O00767 whole entry): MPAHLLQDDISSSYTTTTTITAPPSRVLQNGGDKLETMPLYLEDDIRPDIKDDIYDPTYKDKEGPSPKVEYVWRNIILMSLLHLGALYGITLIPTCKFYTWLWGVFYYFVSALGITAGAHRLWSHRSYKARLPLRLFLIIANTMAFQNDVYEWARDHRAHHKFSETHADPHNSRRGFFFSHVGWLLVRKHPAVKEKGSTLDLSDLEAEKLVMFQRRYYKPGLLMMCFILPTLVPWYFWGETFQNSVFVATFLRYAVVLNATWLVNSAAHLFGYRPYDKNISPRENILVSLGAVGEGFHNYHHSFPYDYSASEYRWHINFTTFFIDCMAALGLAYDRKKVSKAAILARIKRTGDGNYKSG

[3] = biological target: T3, Stearoyl-CoA desaturase 5 (Homo sapiens, UniProt Q86SK9); assay: Inhibition of human SCD5
T3 sequence (Q86SK9 whole entry): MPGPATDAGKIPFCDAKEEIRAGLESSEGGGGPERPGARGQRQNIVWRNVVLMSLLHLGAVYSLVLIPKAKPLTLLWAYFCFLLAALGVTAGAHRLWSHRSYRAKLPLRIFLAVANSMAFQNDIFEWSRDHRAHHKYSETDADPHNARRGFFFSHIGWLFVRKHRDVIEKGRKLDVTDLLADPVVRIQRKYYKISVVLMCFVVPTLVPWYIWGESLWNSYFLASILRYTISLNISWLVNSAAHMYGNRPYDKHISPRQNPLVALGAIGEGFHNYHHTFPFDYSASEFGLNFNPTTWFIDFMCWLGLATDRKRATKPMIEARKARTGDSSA

SMILES: CS(=O)(=O)c1ccc2nc(-c3ccc(Br)cc3)[nH]c2c1
- IC50 [1]: > 20000 nM

SMILES: CN(C)S(=O)(=O)c1ccc2nc(-c3ccc(-c4ccccc4F)cc3)[nH]c2c1
- IC50 [1]: 528 nM

SMILES: CS(=O)(=O)c1ccc2nc(-c3cnc(-c4ccccc4)nc3)[nH]c2c1
- IC50 [1]: 489 nM

SMILES: NS(=O)(=O)c1ccc2nc(-c3ccc(-c4ccccc4F)cc3)[nH]c2c1
- IC50 [2]: 74 nM
- IC50 [1]: 343 nM
- IC50 [3]: > 20000 nM

SMILES: CS(=O)(=O)c1ccc2nc(-c3ccc(-c4ccc(-c5ccccc5)s4)cc3)[nH]c2c1
- IC50 [1]: > 20000 nM

SMILES: CS(=O)(=O)c1ccc2nc(-c3ccc(-c4cccnc4)cc3)[nH]c2c1
- IC50 [1]: 425 nM

SMILES: Cc1ccc(-c2ccc(-c3nc4ccc(S(C)(=O)=O)cc4[nH]3)cc2)cc1
- IC50 [1]: > 20000 nM

SMILES: CS(=O)(=O)c1ccc2nc(-c3ccc(-c4ccccc4Cl)cc3)[nH]c2c1
- IC50 [2]: 255 nM
- IC50 [1]: 4490 nM
- IC50 [3]: > 20000 nM

SMILES: CS(=O)(=O)c1ccc2nc(-c3ccc(-c4ccccn4)cc3)[nH]c2c1
- IC50 [2]: 1760 nM
- IC50 [1]: 1710 nM
- IC50 [3]: > 20000 nM

SMILES: C[S+]([O-])c1ccc2nc(-c3ccc(-c4ccccc4F)cc3)[nH]c2c1 (centres undefined)
- IC50 [2]: 96 nM
- IC50 [1]: 472 nM
- IC50 [3]: > 20000 nM

More lines, in order of falling IC50 [1], values ahead:

- IC50 [1]: 336 nM
SMILES: CS(=O)(=O)c1ccc2nc(-c3ccc(-c4ccccc4O)cc3)[nH]c2c1

- IC50 [1]: 319 nM
SMILES: Cc1cccc(-c2ccc(-c3nc4ccc(S(C)(=O)=O)cc4[nH]3)cc2)c1

- IC50 [1]: 278 nM
SMILES: CS(=O)(=O)c1ccc2nc(-c3ccc(-c4cc(Cl)ccc4F)cc3)[nH]c2c1

- IC50 [1]: 156 nM
- IC50 [3]: > 20000 nM
SMILES: CS(=O)(=O)c1cnc2nc(-c3ccc(-c4ccccc4F)cc3)[nH]c2c1

- IC50 [2]: 15 nM
- IC50 [1]: 148 nM
- IC50 [3]: > 10000 nM
SMILES: CS(=O)(=O)c1ccc2nc(-c3ccc(-c4cccc(Cl)c4)cc3)[nH]c2c1

- IC50 [1]: 104 nM
SMILES: CS(=O)(=O)c1ccc2nc(-c3ccc(-c4ccsc4)cc3)[nH]c2c1

- IC50 [1]: 97 nM
- IC50 [3]: > 20000 nM
SMILES: CS(=O)(=O)c1ccc2nc(-c3ccc(-c4cccs4)cc3)[nH]c2c1

- IC50 [2]: 19 nM
- IC50 [1]: 58 nM
- IC50 [3]: > 20000 nM
SMILES: CS(=O)(=O)c1ccc2nc(-c3ccc(-c4ccccc4F)nc3)[nH]c2c1

- IC50 [2]: 60 nM
- IC50 [1]: 42 nM
- IC50 [3]: > 20000 nM
SMILES: CS(=O)(=O)c1ccn2cc(-c3ccc(-c4ccccc4)cc3)nc2c1

- IC50 [1]: 25 nM
SMILES: CS(=O)(=O)c1ccc2nc(-c3ccc(-c4ccc(F)cc4)cc3)[nH]c2c1

- IC50 [2]: 24 nM
- IC50 [1]: 20 nM
- IC50 [3]: > 10000 nM
SMILES: CS(=O)(=O)c1ccc2nc(-c3ccc(-c4ccccc4)cc3)[nH]c2c1
